In patent publication US8946215B2, “Hydroxy-substituted imidazo[1,2-a]pyridinecarboxamides and their use” (Bayer Pharma Aktiengesellschaft, priority 2012, dated 2015):

Legend:
[1] = Determination of pharmacokinetic parameters following intravenous and oral administration (rats); type: in vivo, male Wistar rats; settings: following intravenous and peroral administration; for MRT / half-life: male, Wistar, rat, plasma; for MRT: read-out: MRT (Mean Residence Time); for half-life: read-out: t½ (terminal half life) (converted)
Procedure: B-6. Determination of Pharmacokinetic Parameters Following Intravenous and Oral Administration
The pharmacokinetic parameters of the compounds according to the invention are determined in male CD-1 mice, male Wistar rats and female beagles. Intravenous administration in the case of mice and rats is carried out by means of a species-specific plasma/DMSO formulation, and in the case of dogs by means of a water/PEG400/ethanol formulation. In all species, oral administration of the dissolved substance is performed via gavage, based on a water/PEG400/ethanol formulation.
The taking of blood from rats is simplified by inserting a silicone catheter into the right Vena jugularis externa prior to substance administration. The operation is carried out at least one day prior to the experiment with […] and administration of an analgesic (atropin/Rimadyl (3/1) 0.1 ml s.c.). The blood is taken (generally more than 10 time points) within a time window including terminal time points of at least 24 to a maximum of 72 hours after substance administration. When the blood is taken, it is passed into heparinised tubes. Then the blood plasma is obtained by centrifugation and is optionally stored at −20° C. until further processing.
An internal standard (which may also be a chemically unrelated substance) is added to the samples of the compounds according to the invention, calibration samples and qualifiers, and there follows protein precipitation by means of excess acetonitrile. Addition of a buffer solution matched to the LC conditions, and subsequent vortexing, is followed by centrifugation at 1000 g. The supernatant is analysed by LC-MS/MS using C18 reversed-phase columns and variable mobile phase mixtures.
The substances are quantified via the peak heights or areas from extracted ion chromatograms of specific selected ion monitoring experiments.
The plasma concentration/time plots determined are used to calculate the pharmacokinetic parameters such as AUC, Cmax, t1/2 (terminal half life), F (Bioavailability), MRT (Mean Residence Time) and CL (Clearance), using a validated pharmacokinetic calculation programme.
Since the substance quantification is carried out in plasma, it is necessary to determine the blood/plasma distribution of the substance in order to be able to adjust the pharmacokinetic parameters correspondingly. For this purpose, a defined amount of substance is incubated in heparinised whole blood of the species in question in a rocking roller mixer for 20 min. After centrifugation at 1000 g, the plasma concentration is measured (by means of LC-MS/MS; see above) and determined by calculating the ratio of the Cblood/Cplasma value.

[2] = molecular target: T1, recombinant guanylate cyclase reporter cell line (Rattus norvegicus, UniProt P19686+P20595); assay: Action on recombinant guanylate cyclase reporter cell line; type: cell-based; settings: in some cases mean values obtained from individual determinations
T1 construct: expressed in transfected cells
T1 sequence (P20595 1-619): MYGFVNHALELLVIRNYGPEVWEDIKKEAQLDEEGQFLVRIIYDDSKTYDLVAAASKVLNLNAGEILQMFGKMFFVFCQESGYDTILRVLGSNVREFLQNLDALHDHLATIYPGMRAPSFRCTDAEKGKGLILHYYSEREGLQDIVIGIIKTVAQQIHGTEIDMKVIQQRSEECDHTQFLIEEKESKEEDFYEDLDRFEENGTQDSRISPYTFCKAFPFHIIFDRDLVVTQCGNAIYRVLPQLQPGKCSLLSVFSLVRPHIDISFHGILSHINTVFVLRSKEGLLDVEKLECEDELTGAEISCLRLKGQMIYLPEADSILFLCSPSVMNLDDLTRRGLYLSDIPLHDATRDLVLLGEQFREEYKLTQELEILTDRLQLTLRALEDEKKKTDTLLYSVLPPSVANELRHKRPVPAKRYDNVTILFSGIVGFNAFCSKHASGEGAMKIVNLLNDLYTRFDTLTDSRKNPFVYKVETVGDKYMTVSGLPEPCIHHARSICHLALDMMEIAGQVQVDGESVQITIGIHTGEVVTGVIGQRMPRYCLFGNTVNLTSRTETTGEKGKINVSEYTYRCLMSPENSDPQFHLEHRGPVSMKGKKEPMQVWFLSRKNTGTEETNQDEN
T1 sequence (P19686 1-690): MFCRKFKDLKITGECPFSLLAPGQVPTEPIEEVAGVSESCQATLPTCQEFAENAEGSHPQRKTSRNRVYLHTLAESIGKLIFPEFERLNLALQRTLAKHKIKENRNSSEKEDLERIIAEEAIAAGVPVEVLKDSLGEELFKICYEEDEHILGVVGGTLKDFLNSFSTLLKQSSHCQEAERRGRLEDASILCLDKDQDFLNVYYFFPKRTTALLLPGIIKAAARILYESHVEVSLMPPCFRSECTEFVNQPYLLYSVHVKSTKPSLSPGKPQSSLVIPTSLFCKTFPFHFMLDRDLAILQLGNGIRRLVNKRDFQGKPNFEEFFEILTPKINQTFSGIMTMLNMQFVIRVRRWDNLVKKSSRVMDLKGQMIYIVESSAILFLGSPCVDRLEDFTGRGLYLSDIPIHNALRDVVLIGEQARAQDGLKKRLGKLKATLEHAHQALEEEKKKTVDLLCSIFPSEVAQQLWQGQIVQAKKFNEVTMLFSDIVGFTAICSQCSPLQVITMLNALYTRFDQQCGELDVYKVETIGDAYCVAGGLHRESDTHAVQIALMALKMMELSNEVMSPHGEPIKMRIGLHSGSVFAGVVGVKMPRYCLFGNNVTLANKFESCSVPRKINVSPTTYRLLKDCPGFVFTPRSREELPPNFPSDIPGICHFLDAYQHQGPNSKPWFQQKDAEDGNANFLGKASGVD
How it was run: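 Cell-based reporter assay with recombinant guanylate cyclase expressed in a reporter cell line, per a published method. Activity reported as minimal effective concentration (MEC), in some cases as the mean of individual determinations.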

| SMILES | MEC (minimal effective concentration) [2] [µM] | further results |
| --- | --- | --- |
| Cc1nc2c(OCc3ncccc3F)cc(Cl)cn2c1C(=O)NC(CCCC(F)(F)F)C(C)(C)O (single isomer, unassigned; ent-6) [Example 188, ent-6-chloro-8-[(3-fluoropyridin-2-yl)methoxy]-2-methyl-N-(7,7,7-trifluoro-2-hydroxy-2-methylheptan-3-yl)imidazo[1,2-a]pyridine-3-carboxamide (enantiomer A)] | 0.3 | AUCnorm [1]: 2.3 kg·h/L; CLblood [1]: 8.83 mL/min/kg; MRT [1]: 2.5 h; half-life [1]: 1.7 h |
| Cc1nc2c(OCc3ncccc3F)cc(Cl)cn2c1C(=O)NC(CCC(F)(F)C(F)(F)F)C(C)(C)O (single isomer, unassigned; ent-6) [Example 194, ent-6-chloro-8-[(3-fluoropyridin-2-yl)methoxy]-2-methyl-N-(6,6,7,7,7-pentafluoro-2-hydroxy-2-methylheptan-3-yl)imidazo[1,2-a]pyridine-3-carboxamide (enantiomer A)] | 0.53 | AUCnorm [1]: 2.9 kg·h/L; CLblood [1]: 7.33 mL/min/kg; MRT [1]: 8.4 h; half-life [1]: 6.2 h |
| CCCC[C@@H](NC(=O)c1c(C)nc2c(OCc3c(F)cccc3F)cccn12)C(C)O (stereo partly drawn) [Example 139, 8-[(2,6-Difluorobenzyl)oxy]-N-[(3R)-2-hydroxyheptan-3-yl]-2-methylimidazo[1,2-a]pyridine-3-carboxamide] | 0.03 |  |
| CCCC[C@@H](NC(=O)c1c(C)nc2c(OCc3c(F)cccc3F)cccn12)C(C)O (stereo partly drawn) [Example 140, 8-[(2,6-Difluorobenzyl)oxy]-N-[(3R)-2-hydroxyheptan-3-yl]-2-methylimidazo[1,2-a]pyridine-3-carboxamide] | 0.03 |  |
| CCCC[C@@H](NC(=O)c1c(C)nc2c(OCc3c(F)cccc3F)cccn12)C(O)C(F)(F)F (stereo partly drawn) [Example 141, 8-[(2,6-Difluorobenzyl)oxy]-2-methyl-N-[(3R)-1,1,1-trifluoro-2-hydroxyheptan-3-yl]imidazo[1,2-a]pyridine-3-carboxamide] | 0.1 |  |
| CCCC[C@@H](NC(=O)c1c(C)nc2c(OCc3c(F)cccc3F)cccn12)C(O)C(F)(F)F (stereo partly drawn) [Example 142, 8-[(2,6-Difluorobenzyl)oxy]-2-methyl-N-[(3R)-1,1,1-trifluoro-2-hydroxyheptan-3-yl]imidazo[1,2-a]pyridine-3-carboxamide] | 0.1 |  |
| CCCC[C@@H](NC(=O)c1c(C)nc2c(OCc3c(F)cccc3F)cccn12)C(C)(C)O [Example 147, 8-[(2,6-Difluorobenzyl)oxy]-N-[(3R)-2-hydroxy-2-methylheptan-3-yl]-2-methylimidazo[1,2-a]-pyridine-3-carboxamide] | 0.1 |  |
| Cc1nc2c(OCc3c(F)cccc3F)cccn2c1C(=O)NCCC(C)(C)O [Example 153, 8-[(2,6-difluorobenzyl)oxy]-N-(3-hydroxy-3-methylbutyl)-2-methylimidazo[1,2-a]pyridine-3-carboxamide] | 0.3 |  |
| CCCC[C@H](CO)NC(=O)c1c(C)nc2c(OCc3c(F)cccc3F)cc(C#N)cn12 [Example 157, 6-Cyano-8-[(2,6-difluorobenzyl)oxy]-N-[(2R)-1-hydroxyhexan-2-yl]-2-methylimidazo[1,2-a]-pyridine-3-carboxamide] | 0.065 |  |
| CCCC[C@H](CO)NC(=O)c1c(C)nc2c(OCCC(C)C)cccn12 [Example 159, N-[(2R)-1-Hydroxyhexan-2-yl]-2-methyl-8-(3-methylbutoxy)imidazo[1,2-a]pyridine-3-carboxamide] | 1.0 |  |
| COC(=O)[C@H](CO)NC(=O)c1c(C)nc2c(OCc3c(F)cccc3F)cccn12 [Example 164, Methyl N-({8-[(2,6-difluorobenzyl)oxy]-2-methylimidazo[1,2-a]pyridin-3-yl}carbonyl)-L-serinate] | 0.2 |  |
| Cc1nc2c(OCc3c(F)cccc3F)cccn2c1C(=O)N[C@@H](CO)C(C)(C)O [Example 165, 8-[(2,6-Difluorobenzyl)oxy]-N-[(2S)-3-dihydroxy-3-methylbutan-2-yl]-2-methylimidazo[1,2-a]-pyridine-3-carboxamide] | 1.0 |  |
| CCCC[C@H](CO)NC(=O)c1c(C)nc2c(OCCC(C)C)cc(C)cn12 [Example 166, N-[(2R)-1-Hydroxyhexan-2-yl]-2,6-dimethyl-8-(3-methylbutoxy)imidazo[1,2-a]pyridine-3-carboxamide] | 1.0 |  |
| CCCC[C@H](CO)NC(=O)c1c(C)nc2c(OCCC(C(F)(F)F)C(F)(F)F)cc(C)cn12 [Example 169, N-[(2R)-1-Hydroxyhexan-2-yl]-2,6-dimethyl-8-[4,4,4-trifluoro-3-(trifluoromethyl)butoxy]imidazo-[1,2-a]pyridine-3-carboxamide] | 0.3 |  |
| Cc1cc(OCCC(C(F)(F)F)C(F)(F)F)c2nc(C)c(C(=O)NC3c4ccccc4CC3O)n2c1 (stereo not shown) [Example 172, N-(2-Hydroxy-2,3-dihydro-1H-inden-1-yl)-2,6-dimethyl-8-[4,4,4-trifluoro-3-(trifluoromethyl)-butoxy]imidazo[1,2-a]pyridine-3-carboxamide] | 1.0 |  |
| Cc1cc(OCCC(C(F)(F)F)C(F)(F)F)c2nc(C)c(C(=O)NC3CCCC3O)n2c1 (stereo not shown) [Example 173, N-(2-hydroxycyclopentyl)-2,6-dimethyl-8-[4,4,4-trifluoro-3-(trifluoromethyl)butoxy]imidazo[1,2-a]pyridine-3-carboxamide] | 3.0 |  |
| CCCC[C@H](CO)NC(=O)c1c(C)nc2c(OCc3c(F)cccc3F)c(F)ccn12 [Example 177, 8-[(2,6-Difluorobenzyl)oxy]-7-fluoro-N-[(2R)-1-hydroxyhexan-2-yl]-2-methylimidazo[1,2-a]-pyridine-3-carboxamide] | 1.0 |  |
